Test results published in patent EP4471048A1, “PEPTIDE INHIBITORS OF INTERLEUKIN-23 RECEPTOR” (Zealand Pharma A/S, priority 2023, dated 2024).
Like-named read-outs stand apart in the source and are kept apart here. *1 amine or outer side, *2 acyl side, *3 side chain or, on linkers, in order; H or OH if unused. Where a SMILES comes first, the peptide text is derived from it. Bridges are numbered along the chain shown (N, C = ends). Where no end group is shown, it is not given here. [ ]: non-standard residue; d: D form. 4‑Aminomethyl‑phenylacetyl = 4-aminomethyl-phenylacetyl unit, its amine closes the lactam, O=C(Cc1ccc(CN[*:1])cc1)[*:2]; 2Nal = N[C@@H](Cc1ccc2ccccc2c1)C(=O)O; AEF = NCCOc1ccc(C[C@H](N)C(=O)O)cc1; X1 = O=C(Cc1ccc(CN[*:1])cc1)[*:2]; 3Pal = N[C@@H](Cc1cccnc1)C(=O)O; αMeL = CC(C)C[C@](C)(N)C(=O)O; CH2COCH2 = O=C(C[*:1])C[*:2]; β3hK = NCCCC[C@H](N)CC(=O)O; Dab = NCC[C@H](N)C(=O)O

T1: human IL-23R (Homo sapiens, UniProt Q5VWK5)
T1 sequence (Q5VWK5 22-629): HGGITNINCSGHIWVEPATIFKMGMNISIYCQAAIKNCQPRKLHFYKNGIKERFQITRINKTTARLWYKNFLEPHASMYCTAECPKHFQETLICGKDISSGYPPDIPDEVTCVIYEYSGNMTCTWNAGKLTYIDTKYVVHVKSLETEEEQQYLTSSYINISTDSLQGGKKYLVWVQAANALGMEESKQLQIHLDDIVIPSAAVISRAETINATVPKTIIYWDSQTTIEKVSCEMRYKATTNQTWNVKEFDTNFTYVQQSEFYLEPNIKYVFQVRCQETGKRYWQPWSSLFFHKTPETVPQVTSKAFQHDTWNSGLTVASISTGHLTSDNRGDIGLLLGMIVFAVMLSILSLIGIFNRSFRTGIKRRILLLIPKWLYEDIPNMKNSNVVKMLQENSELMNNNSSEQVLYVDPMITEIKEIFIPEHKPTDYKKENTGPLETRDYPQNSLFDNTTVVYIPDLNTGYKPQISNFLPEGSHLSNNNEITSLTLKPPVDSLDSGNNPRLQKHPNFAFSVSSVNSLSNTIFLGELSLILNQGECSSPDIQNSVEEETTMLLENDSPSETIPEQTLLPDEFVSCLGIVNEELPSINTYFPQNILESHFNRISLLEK

T2: human IL-23R endogenously expressed on DB cells (human, UniProt Q5VWK5 24-629)
T2 sequence (looked up): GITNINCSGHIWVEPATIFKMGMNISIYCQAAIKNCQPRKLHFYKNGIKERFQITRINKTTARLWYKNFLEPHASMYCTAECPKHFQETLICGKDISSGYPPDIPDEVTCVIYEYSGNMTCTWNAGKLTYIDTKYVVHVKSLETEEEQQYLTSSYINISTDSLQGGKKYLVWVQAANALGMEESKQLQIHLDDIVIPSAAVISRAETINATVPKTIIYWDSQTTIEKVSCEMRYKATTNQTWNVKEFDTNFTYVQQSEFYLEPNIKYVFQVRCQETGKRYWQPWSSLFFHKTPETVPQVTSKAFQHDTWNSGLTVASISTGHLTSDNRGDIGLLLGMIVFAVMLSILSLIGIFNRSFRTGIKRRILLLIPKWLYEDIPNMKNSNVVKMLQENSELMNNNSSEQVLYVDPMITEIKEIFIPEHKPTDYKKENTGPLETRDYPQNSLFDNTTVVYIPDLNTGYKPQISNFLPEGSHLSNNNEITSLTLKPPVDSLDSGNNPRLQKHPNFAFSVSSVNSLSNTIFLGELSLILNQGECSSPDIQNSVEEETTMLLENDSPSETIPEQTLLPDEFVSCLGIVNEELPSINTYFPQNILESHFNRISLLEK

B1: Ref 125 (peptide)
peptide: [4‑Aminomethyl‑phenylacetyl]SEWQ[Dab][AEF][2Nal][αMeL]E[Dab]-NH2
modifications: lactam (positions not given here); bridge 3-6; not fully specified (bridges)
B2: Compound 99 (peptide)
peptide: [β3hK]GWQE[AEF][2Nal][αMeL]E[Dab][3Pal]-NHMe
modifications: lactam 1-9; lactam (positions not given here); not fully specified (bridges); also: beta-amine of residue 1 is in one of the two lactams
B3: Ref 81 (peptide)
peptide: [4‑Aminomethyl‑phenylacetyl]SCWQC[AEF][2Nal][αMeL]ES-NH2
modifications: lactam (positions not given here); bridge 3-6; not fully specified (bridges)

Tests used:
[1] = target: IL-23 mediated signalling (Homo sapiens, UniProt Q5VWK5); experiment: Functional inhibition of IL-23 mediated STAT3 signalling (phospho-STAT3 MSD) in DB cells; assay type: cell-based; details: for Emax: maximal inhibitory response, read-out: hIL-23 (pSTAT3) antagonist % inhibition
Method in brief: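 DB cells preincubated with inhibitor 15 min at 37 °C, then stimulated 90 min with EC80 human IL-23; lysate phospho-STAT3 measured by MSD electrochemiluminescence. Signal normalized to IL-23-alone and buffer controls; IC50 and maximal % inhibition from 4-parameter logistic fit.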

[2] = Peptide stability in simulated intestinal fluid (SIF); assay type: in vitro ADME; details: 37 °C, porcine pancreatin; for remaining at 1 h, 10 µM / remaining at 4 h, 10 µM: pig; for remaining at 1 h, 10 µM: pH 6.8, 1 h
Method in brief: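 Peptides were incubated at 37 °C with gentle shaking in pH 6.8 potassium phosphate SIF containing porcine pancreatin (10 g/L). Supernatants were analysed by LC-HRMS. Percent remaining at each timepoint, including 4 h, was calculated relative to time zero from absolute peak areas.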

[3] = Peptide stability in simulated gastric fluid (SGF); assay type: in vitro ADME; details: for remaining at 1 h, 10 µM / remaining at 4 h, 10 µM: pig
Method in brief: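 Peptide incubated at 37 °C with gentle shaking in SGF (NaCl, pH 1.2). Samples centrifuged, diluted and analysed by LC-HRMS; percent remaining at each timepoint from absolute peak areas relative to time zero, with 4 h as the reference point.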

[4] = target: T1, human IL-23R; experiment: biochemical
Method in brief: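 BRET displacement of a TAMRA-labelled reference compound from N-terminal Nanoluc-IL-23R fusion protein in membranes from stably transfected HEK293 cells. Incubation 2 h at room temperature, then Nanoluc substrate was added and the TAMRA/Nanoluc ratio read. IC50 and maximal displacement came from 4-parameter logistic fits.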

[5] = target: T2, human IL-23R endogenously expressed on …; experiment: cell-based or functional assay
[6] = Table 3-2, DB cells, hIL-23 at EC80
[7] = pH 6.8, 4 h, read-out: SIF (% remaining 4 h)
[8] = simulated gastric fluid (SGF) with porcine pepsin (3.2 g/L), pH 1.2, 10 µM, 37 °C, porcine pepsin, pH 1.2, 1 h, read-out: SGF (% remaining 1 h)
[9] = simulated gastric fluid (SGF) with porcine pepsin (3.2 g/L), pH 1.2, 10 µM, 37 °C, porcine pepsin, pH 1.2, 4 h, read-out: SGF (% remaining 4 h)
[10] = SAR tables, % peptide remaining, pH 6.8, 4 h, read-out: SIF (% after 4 h)

Molecule	Emax [1, 6]	remaining at 1 h, 10 µM [2]	remaining at 4 h, 10 µM [2, 7]	remaining at 1 h, 10 µM [3, 8]	remaining at 4 h, 10 µM [3, 9]	% displacement (hIL-23R NIuc) [4]	IC50 [4]	Ki [4]	hIL-23 (pSTAT3) antagonist IC50 [5]	other results
CC(C)C[C@]1(C)NC(=O)[C@H](Cc2ccc3ccccc3c2)NC(=O)[C@H](Cc2ccc(OCCN)cc2)NC(=O)[C@@H]2CCNC(=O)CC[C@H](NC(=O)[C@H](CO)NC(=O)Cc3ccc(cc3)CNC(=O)CC[C@@H](C(=O)N[C@@H](CCN)C(=O)N[C@@H](Cc3cccnc3)C(N)=O)NC1=O)C(=O)N[C@@H](Cc1c[nH]c3ccccc13)C(=O)N[C@@H](CCC(N)=O)C(=O)N2 [Ref 122, [4-Aminomethyl-phenylacetyl](1c)*SE(2c)WQ[Dab](2c)[Y(2-aminoethoxy)][2-Nal][2-Me-Leu]E(1 c)[Dab][3-(3-Pyridyl)-Ala]-[NH2], reference compound]	99%	73%	25%	92%	90%	97%	0.0066 nM	0.00541 nM	–	IC50 [1]: 0.028 nM
CC(C)C[C@]1(C)NC(=O)[C@H](Cc2ccc3ccccc3c2)NC(=O)[C@H](Cc2ccc(OCCN)cc2)NC(=O)[C@@H]2CSCC(=O)CSC[C@H](NC(=O)[C@H](CO)NC(=O)Cc3ccc(cc3)CNC(=O)CC[C@@H](C(=O)N[C@@H](CCN)C(=O)N[C@@H](Cc3cccnc3)C(N)=O)NC1=O)C(=O)N[C@@H](Cc1c[nH]c3ccccc13)C(=O)N[C@@H](CCC(N)=O)C(=O)N2 [Ref 120, [4-Aminomethyl-phenylacetyl](1c)*SC(2a)WQC(2a)[Y(2-aminoethoxy)][2-Nal][2-Me-Leu]E(1c)[Dab][3-(3-Pyridyl)-Ala]-[NH2], reference compound] ([X1]SCWQC[AEF][2Nal][αMeL]E[Dab][3Pal]-NH2; linker 3-6 via CH2COCH2; lactam N-10)	101%	82%	39%	–	–	94%	0.011 nM	0.00938 nM	–	IC50 [1]: 0.054 nM; remaining at 1 h, 10 µM ([3]; simulated gastric fluid, pH 1.2, SGF (% remaining 1 h)): 84%; remaining at 4 h, 10 µM ([3]; simulated gastric fluid, pH 1.2, SGF (% remaining 4 h)): 81%
CC(C)C[C@@H]1NC(=O)[C@H](Cc2c[nH]c3ccccc23)NC(=O)[C@H](Cc2c[nH]c3ccccc23)NC(=O)[C@@H]2CSCC(=O)CSC[C@H](NC(=O)[C@H](CO)NC(=O)[C@@H](NC(=O)[C@@H](N)CC(=O)O)CCC(=O)NCCCC[C@@H](C(=O)N[C@@H](CCCNC(=N)N)C(N)=O)NC1=O)C(=O)N[C@@H](Cc1c[nH]c3ccccc13)C(=O)N[C@@H](CCC(N)=O)C(=O)N2 [Ref 4, H-DE(1c)SC(2a)WQC(2a)WWLK(1c)R-[NH2], reference compound] (HELM PEPTIDE1{D.E.S.C.W.Q.C.W.W.L.K.R.[am]}|CHEM1{[O=C(C[*:1])C[*:2]]}$PEPTIDE1,PEPTIDE1,2:R3-11:R3|PEPTIDE1,CHEM1,4:R3-1:R1|PEPTIDE1,CHEM1,7:R3-1:R2$$$V2.0)	87%	0%	0%	1%	0%	100%	180 nM	143 nM	–	IC50 ([1]; Table 3-2, DB cells, hIL-23 at EC80, read-out: hIL-23 (pSTAT3) antagonist IC50): 850 nM
CC[C@H](C)[C@@H]1NC(=O)[C@@H]2CCCCNC(=O)CC[C@@H](C(=O)N[C@@H](CCN)C(=O)N[C@@H](Cc3cccnc3)C(=O)NC)NC(=O)[C@](C)(CC(C)C)NC(=O)[C@H](Cc3ccc4ccccc4c3)NC(=O)[C@H](Cc3ccc(OCCN)cc3)NC(=O)[C@H](CCC(=O)N2)NC(=O)[C@H](CCC(N)=O)NC(=O)[C@H](Cc2c[nH]c3ccccc23)NC(=O)[C@H](C(C)C)NC1=O [Compound 60, K(1c)(6c)^†IVWQE(6c)[Y(2-aminoethoxy)][2-Nal][2-Me-Leu]E(1c)[Dab][3-(3-Pyridyl)-Ala]-[NHMe]]	101%	76%	–	120%	–	95%	0.049 nM	–	–	SIF (% remaining 4 h) ([2]; 10 µM, pH 6.8, 4 h): 71%; SIF (% after 4 h) ([2]; SAR tables, % peptide remaining, 10 µM, pH 6.8, 4 h): 71%; remaining at 4 h, 10 µM [2, 10]: 71%; SGF (% after 4 h) ([3]; SAR tables, % peptide remaining, 10 µM, 37 °C, porcine pepsin, pH 1.2, 4 h): 109%; remaining at 4 h, 10 µM ([3]; simulated gastric fluid (SGF) with porcine pepsin (3.2 g/L), pH 1.2, SAR tables, % peptide remaining, 10 µM, 37 °C, porcine pepsin, pH 1.2, 4 h, read-out: SGF (% after 4 h)): 109%
CNC(=O)[C@H](Cc1cccnc1)NC(=O)[C@H](CCN)NC(=O)[C@@H]1CCC(=O)NCCCC[C@H]2CC(=O)NCC(=O)N[C@@H](Cc3c[nH]c4ccccc34)C(=O)N[C@@H](CCC(N)=O)C(=O)N[C@@H](CCC(=O)N2)C(=O)N[C@@H](Cc2ccc(OCCN)cc2)C(=O)N[C@@H](Cc2ccc3ccccc3c2)C(=O)N[C@@](C)(CC(C)C)C(=O)N1 [Compound 99, [beta-hLys](1c)(6c)^†GWQE(6c)[Y(2-aminoethoxy)][2-Nal][2-Me-Leu]E(1c)[Dab][3-(3-Pyridyl)-Ala]-[NHMe]]	100%	74%	–	104%	101%	–	0.024 nM	–	–	IC50 ([1]; SAR tables 2-1 to 2-7, DB cells, hIL-23 at EC80, read-out: IC50 (pSTAT3)): 0.014 nM; SIF (% remaining 4 h) ([2]; 10 µM, pH 6.8, 4 h): 42%; remaining at 4 h, 10 µM [2, 10]: 42%; Emax ([4]; read-out: % displacement (hIL-23R NIuc)): 101%
B1	–	–	–	–	–	–	–	–	21 nM	–
B2	–	–	–	–	–	–	–	–	14 pM	hIL-23 (pSTAT3) antagonist % inhibition [5]: 100%
B3	–	–	–	–	–	–	–	–	21 nM	hIL-23 (pSTAT3) antagonist % inhibition [5]: 95%
